Values quoted from earlier work as cited in patent US9180090B2, “Non-sedating antihistamine injection formulations and methods of use thereof” (JDP THERAPEUTICS, INC., priority 2009, dated 2015).

Columns and labels:
[1] = for Major (potential drug interactions) / Minor (potential drug interactions) / Moderate (potential drug interactions): number of interactions per drugs.com
[2] = oral

SMILES | Major (potential drug interactions) [1] | Minor (potential drug interactions) [1] | Moderate (potential drug interactions) [1] | Disease state interaction ([1]; per drugs.com) | AUC0-24 (single dose) ([2]; single dose) | AUC(single dose)0-inf ([2]; single dose) | AUCss ([2]; steady state)
O=C(O)COCCN1CCN(C(c2ccccc2)c2ccc(Cl)cc2)CC1 (racemic) [Cetirizine, (±)-[2-[4-[(4-chlorophenyl)phenylmethyl]-1-piperazinyl]ethoxy]acetic acid] | 0 | 5 | 568 | Renal/Liver Disease | – | – | –
OCCOCCN1CCN(C(c2ccccc2)c2ccc(Cl)cc2)CC1 (racemic) [Hydroxyzine] | 17 | 6 | 622 | – | – | – | –
Clc1ccc2c(c1)CCc1cccnc1C2=C1CCNCC1 [desloratadine] | – | – | – | – | AUC0-24 (single dose) = about 34.2 ng · hr/mL | AUC(single dose)0-inf = about 35.6 ng/hr/mL | AUCss = about 56.9 ng · hr/mL
